Assay results as given in patent publication US20120122906A1, “NOVEL SULFONAMIDE DERIVATIVE AND PHARMACEUTICAL PRODUCT CONTAINING SAME” (KOWA COMPANY, LTD., priority 2009, published 2012).

Target: T1, angiotensin II type 1 receptor (Oryctolagus cuniculus, UniProt P34976)
T1 construct: By using a specimen of isolated rabbit blood vessels; from tissue; host or cells: rabbit thoracic aorta ring (New Zealand White, male)
T1 sequence (P34976 1-359): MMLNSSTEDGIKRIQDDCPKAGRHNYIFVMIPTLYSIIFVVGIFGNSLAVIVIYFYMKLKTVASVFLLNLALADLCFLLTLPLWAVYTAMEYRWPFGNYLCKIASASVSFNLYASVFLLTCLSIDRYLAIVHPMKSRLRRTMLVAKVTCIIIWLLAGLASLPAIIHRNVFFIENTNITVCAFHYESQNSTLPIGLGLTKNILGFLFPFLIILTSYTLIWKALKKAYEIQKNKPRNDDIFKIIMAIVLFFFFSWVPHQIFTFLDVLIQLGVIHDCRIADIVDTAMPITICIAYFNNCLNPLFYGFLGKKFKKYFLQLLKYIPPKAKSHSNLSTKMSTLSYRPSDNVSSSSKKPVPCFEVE
Assay: Angiotensin II antagonistic activity in isolated rabbit blood vessels (angiotensin II-induced contraction of thoracic aorta ring)
Conditions: 0.1 μM compound, angiotensin II (10 nM)-induced contraction, read-out: Angiotensin II activity inhibition rate (%) at 0.1 μM concentration
Method: By using a specimen of isolated rabbit blood vessels, antagonistic activity of the compounds of the invention against angiotensin II type 1 receptor was estimated from a dose-response curve of angiotensin II-induced blood vessel contraction. Specifically, the specimen of thoracic aorta ring of a rabbit (New Zealand White: male, 2.4 to 3.0 kg) was suspended in a magnus bath filled with Krebs-Henseleite buffer (composition: 118 mM NaCl, 4.7 mM KCl, 2.55 mM CaCl2, 1.18 mM MgSO4, 1.18 mM KH2PO4, 24.88 mM NaHCO3, and 11.1 mM D-glucose), and angiotensin II (10 nM)-induced contraction was obtained in the presence of the compounds of each example (1 nmol to 10 μmol/L). During the measurement, the inside temperature of the magnus bath was maintained at 37° C. and the bath was continuously ventilated with a sufficient amount of mixed gas (95% O2 and 5% CO2). The angiotensin II-induced contraction was converted into a relative value (%) that is based on the angiotensin II (10 nM)-induced contraction in the absence of the compounds of each example. From the concentration-response curve obtained therefrom, 50% inhibition concentration (IC50 value) was calculated by using SAS Preclinical Package Ver 5.0 (trade name, manufactured by SAS institute Japan Co., Tokyo, Japan), which is a statistical analysis program.

| inhibition at 0.1 µM [%] | Compound |
| --- | --- |
| 100 | CCCCc1nc(C)n(-c2ncc(OC)cn2)c(=O)c1Cc1ccc(-c2ccccc2S(=O)(=O)NC(=O)C2CCCC2)cc1 [Example 4, N-{4′-{[4-butyl-1-(5-methoxypyrimidin-2-yl)-2-methyl-6-oxo-1,6-dihydropyrimidin-5-yl]methyl}biphenyl-2-ylsulfonyl}cyclopentanecarboxamide] |
| 92.4 | CCCCc1nc(C)n(-c2ncc(OC)cn2)c(=O)c1Cc1ccc(-c2ccccc2S(=O)(=O)NC(=O)C2CCCCC2)cc1 [Example 5, N-{4′-{[4-butyl-1-(5-methoxypyrimidin-2-yl)-2-methyl-6-oxo-1,6-dihydropyrimidin-5-yl]methyl}biphenyl-2-ylsulfonyl}cyclohexanecarboxamide] |
| 77.5 | CCCCc1nc(C)n(-c2ncc(OCC)cn2)c(=O)c1Cc1ccc(-c2ccccc2S(=O)(=O)NC(=O)C2CC2)cc1 [Example 8, N-{4′-{[4-butyl-1-(5-ethoxypyrimidin-2-yl)-2-methyl-6-oxo-1,6-dihydropyrimidin-5-yl]methyl}biphenyl-2-ylsulfonyl}cyclopropanecarboxamide] |
| 81.9 | CCCCc1nc(C)n(-c2ncc(OCC)cn2)c(=O)c1Cc1ccc(-c2ccccc2S(=O)(=O)NC(=O)C2CCCCC2)cc1 [Example 10, N-{4′-{[4-butyl-1-(5-ethoxypyrimidin-2-yl)-2-methyl-6-oxo-1,6-dihydropyrimidin-5-yl]methyl}biphenyl-2-ylsulfonyl}cyclohexanecarboxamide] |

The remaining lines, values behind:

| Compound | inhibition at 0.1 µM [%] |
| --- | --- |
| CCCCc1nc(C)n(-c2ncc(OC)cn2)c(=O)c1Cc1ccc(-c2ccccc2S(=O)(=O)NC(=O)CC)cc1 [Example 1, N-{4′-{[4-butyl-1-(5-methoxypyrimidin-2-yl)-2-methyl-6-oxo-1,6-dihydropyrimidin-5-yl]methyl}biphenyl-2-ylsulfonyl}propionamide] | 71.7 |
| CCCCCC(=O)NS(=O)(=O)c1ccccc1-c1ccc(Cc2c(CCCC)nc(C)n(-c3ncc(OC)cn3)c2=O)cc1 [Example 2, N-{4′-{[4-butyl-1-(5-methoxypyrimidin-2-yl)-2-methyl-6-oxo-1,6-dihydropyrimidin-5-yl]methyl}biphenyl-2-ylsulfonyl}hexanamide] | 91.9 |
| CCCCc1nc(C)n(-c2ncc(OC)cn2)c(=O)c1Cc1ccc(-c2ccccc2S(=O)(=O)NC(=O)C2CC2)cc1 [Example 3, N-{4′-{[4-butyl-1-(5-methoxypyrimidin-2-yl)-2-methyl-6-oxo-1,6-dihydropyrimidin-5-yl]methyl}biphenyl-2-ylsulfonyl}cyclopropanecarboxamide] | 90 |
| CCCCCC(=O)NS(=O)(=O)c1ccccc1-c1ccc(Cc2c(CCCC)nc(C)n(-c3ncc(OCC)cn3)c2=O)cc1 [Example 7, N-{4′-{[4-butyl-1-(5-ethoxypyrimidin-2-yl)-2-methyl-6-oxo-1,6-dihydropyrimidin-5-yl]methyl}biphenyl-2-ylsulfonyl}hexanamide] | 89.3 |

Target: T2, human PPARγ2 (Homo sapiens, UniProt P37231)
T2 construct: the amino acids 182 to 505 of human PPARγ2; expressed in transfected cells
T2 sequence (P37231 182-505): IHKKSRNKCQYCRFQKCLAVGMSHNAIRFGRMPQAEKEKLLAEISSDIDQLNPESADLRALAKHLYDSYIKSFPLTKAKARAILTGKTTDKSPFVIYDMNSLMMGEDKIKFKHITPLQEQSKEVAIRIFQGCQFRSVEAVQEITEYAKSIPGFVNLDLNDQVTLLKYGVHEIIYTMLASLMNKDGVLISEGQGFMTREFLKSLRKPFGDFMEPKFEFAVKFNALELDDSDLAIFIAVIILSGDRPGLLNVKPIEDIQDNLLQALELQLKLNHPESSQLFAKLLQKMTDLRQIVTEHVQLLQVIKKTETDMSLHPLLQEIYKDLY
Assay: PPARγ activation activity, Gal4-PPARγ2 LBD luciferase transfection assay in COST cells
Assay type: cell-based
Conditions: Gal4-human PPARγ2 LBD luciferase reporter, 16 hours, rosiglitazone = 100%
Method: The agonistic activity of the compounds of the invention on PPARγ was measured based on the transfection assay using COST cells (DS Pharma Biomedical Co., Ltd., Osaka, Japan), which are the cell line derived from the kidney of the African green monkey. COST cells were cultured under 5% CO2 concentration, and DMEM medium containing 10% fetal bovine serum, glutamic acid, and antibiotics was used as a medium.
As an expression vector, a chimera in which DNA binding domain of Gal4, which is a yeast transcription factor, and ligand binding domain of human PPARγ2 are fused, i.e., a fused product between the amino acids 1 to 147 of Gal4 transcription factor and the amino acids 182 to 505 of human PPARγ2, was used. Furthermore, as a reporter vector, a firefly luciferase containing five copies of Gal4 recognition sequence in the promoter region was used. Plasmid transfection to the cells was performed according to a method which uses jetPEI (trade name, manufactured by Funakoshi Co., Ltd., Tokyo, Japan). Furthermore, β-galactosidase expression vector was employed as an internal standard.
After the transfection of the cells, the medium was replaced with a DMEM medium (containing 1% serum) added with the compound, and the cells were further cultured for 16 hours. After that, the luciferase activity and β-galactosidase activity in the cell lysis solution were measured.
For the present test, dimethyl sulfoxide (DMSO) was used for dissolution and dilution of the test compounds, and during the cell treatment, the DMSO concentration in DMEM medium (containing 1% serum) was adjusted to 0.1%. As a positive compound, rosiglitazone (trade name, manufactured by ALEXIS Corporation, Switzerland) was used. The luciferase activity (%) of the test compounds (1 to 30 μmol/L) was calculated when the luciferase activity of rosiglitazone (3 to 10 μmol/L) is 100% and the luciferase activity in the absence of the test compound is 0%. The 50% effective concentration of the test compound (EC50, 50% effect concentration) was calculated by using SAS Preclinical Package Ver 5.0 (trade name, manufactured by SAS institute Japan Co., Tokyo, Japan), which is a statistical analysis program.
Under the same condition, the PPARγ activation activity of telmisartan, i.e., EC50, was 1 to 5 μM. In addition, it was confirmed that compounds of Examples not shown in Table 2 also have PPARγ activation activity at a concentration of 30 μM.

| EC50 [nM] | Compound |
| --- | --- |
| 3690 | CCCCc1nc(C)n(-c2ncc(OCC)cn2)c(=O)c1Cc1ccc(-c2ccccc2S(=O)(=O)NC(=O)C2CC2)cc1 [Example 8, N-{4′-{[4-butyl-1-(5-ethoxypyrimidin-2-yl)-2-methyl-6-oxo-1,6-dihydropyrimidin-5-yl]methyl}biphenyl-2-ylsulfonyl}cyclopropanecarboxamide] |
| 510 | CCCCc1nc(C2CCCCC2)n(-c2ncc(OCC)cn2)c(=O)c1Cc1ccc(-c2ccccc2S(=O)(=O)NC(=O)C2CC2)cc1 [Example 19, N-{4′-{[4-butyl-2-cyclohexyl-1-(5-ethoxypyrimidin-2-yl)-6-oxo-1,6-dihydropyrimidin-5-yl]methyl}biphenyl-2-ylsulfonyl}cyclopropanecarboxamide] |

Continued, compound first:

| Compound | EC50 [nM] |
| --- | --- |
| CCCCCC(=O)NS(=O)(=O)c1ccccc1-c1ccc(Cc2c(CCCC)nc(C)n(-c3ncc(OCC)cn3)c2=O)cc1 [Example 7, N-{4′-{[4-butyl-1-(5-ethoxypyrimidin-2-yl)-2-methyl-6-oxo-1,6-dihydropyrimidin-5-yl]methyl}biphenyl-2-ylsulfonyl}hexanamide] | 2210 |
| CCCCc1nc(C)n(-c2ncc(OC(F)F)cn2)c(=O)c1Cc1ccc(-c2ccccc2S(=O)(=O)NC(=O)C2CC2)cc1 [Example 11, N-{4′-{{4-butyl-1-[5-(difluoromethoxy)pyrimidin-2-yl]-2-methyl-6-oxo-1,6-dihydropyrimidin-5-yl}methyl}biphenyl-2-ylsulfonyl}cyclopropanecarboxamide] | 3370 |
| CCCCc1nc(CC)n(-c2ncc(OCC)cn2)c(=O)c1Cc1ccc(-c2ccccc2S(=O)(=O)NC(=O)C2CC2)cc1 [Example 13, N-{4′-{[4-butyl-1-(5-ethoxypyrimidin-2-yl)-2-ethyl-6-oxo-1,6-dihydropyrimidin-5-yl]methyl}biphenyl-2-ylsulfonyl}cyclopropanecarboxamide] | 2790 |
| CCCCc1nc(C(C)C)n(-c2ncc(OCC)cn2)c(=O)c1Cc1ccc(-c2ccccc2S(=O)(=O)NC(=O)C2CC2)cc1 [Example 14, N-{4′-{[4-butyl-1-(5-ethoxypyrimidin-2-yl)-2-isopropyl-6-oxo-1,6-dihydropyrimidin-5-yl)methyl)biphenyl-2-ylsulfonyl]cyclopropanecarboxamide] | 1360 |
| CCCCc1nc(C2CC2)n(-c2ncc(OC)cn2)c(=O)c1Cc1ccc(-c2ccccc2S(=O)(=O)NC(=O)C2CC2)cc1 [Example 15, N-{4′-{[4-butyl-2-cyclopropyl-1-(5-methoxypyrimidin-2-yl)-6-oxo-1,6-dihydropyrimidin-5-yl)methyl)biphenyl-2-ylsulfonyl]cyclopropanecarboxamide] | 1050 |
| CCCCc1nc(C2CC2)n(-c2ncc(OCC)cn2)c(=O)c1Cc1ccc(-c2ccccc2S(=O)(=O)NC(=O)C2CC2)cc1 [Example 16, N-{4′-{[4-butyl-2-cyclopropyl-1-(5-ethoxypyrimidin-2-yl)-6-oxo-1,6-dihydropyrimidin-5-yl]methyl}biphenyl-2-ylsulfonyl}cyclopropanecarboxamide] | 2350 |
| CCCCc1nc(C2CCC2)n(-c2ncc(OCC)cn2)c(=O)c1Cc1ccc(-c2ccccc2S(=O)(=O)NC(=O)C2CC2)cc1 [Example 17, N-{4′-{[4-butyl-2-cyclobutyl-1-(5-ethoxypyrimidin-2-yl)-6-oxo-1,6-dihydropyrimidin-5-yl]methyl}biphenyl-2-ylsulfonyl}cyclopropanecarboxamide] | 960 |
| CCCCc1nc(C2CCCC2)n(-c2ncc(OCC)cn2)c(=O)c1Cc1ccc(-c2ccccc2S(=O)(=O)NC(=O)C2CC2)cc1 [Example 18, N-{4′-{[4-butyl-2-cyclopentyl-1-(5-ethoxypyrimidin-2-yl)-6-oxo-1,6-dihydropyrimidin-5-yl]methyl}biphenyl-2-ylsulfonyl}cyclopropanecarboxamide] | 710 |
| CCCc1nc2c(C)cc(-c3nc4ccccc4n3C)cc2n1Cc1ccc(-c2ccccc2C(=O)O)cc1 [telmisartan, reference compound] | 1000 to 5000 |
